Measured values reported in PMC12651750 (Cells, 2025).
Where two headings read alike, the source gives them in different places.

Legend:
Type in all cases: cell-based
[1] = tested on: HUVEC, human umbilical vein endothelial cells; experiment: Toxicity on normal cells (MTT / CCK-8 assay)
Procedure: These cells were purchased from the National Collection of Authenticated Cell Cultures (Shanghai, China).
(§1) The concentration of the cell suspension was adjusted to the appropriate concentration with fresh medium (the number of cells was about 30–40% of the bottom area of the well plate). 150 μL (about 1 × 10^4 cells) of prepared cell suspension containing different concentrations of NBU-2 were added to a 96-microtiter plate, and 3 replicate wells were set up for each concentration. If the cells were adherent, the cells were first allowed to grow overnight in 96 microtiter plates until the cells were adherent, and then the old medium was replaced with the drug-containing medium. The plates were incubated in a 5% CO2 cell incubator at 37 °C for 72 h. Then, 15 μL of MTT solution was added to each well, 100 μL of 10% SDS solution (pH = 2) was added after 4 h, and the plate was incubated at 37 °C with 5% CO2 overnight to fully dissolve the crystals.
(§2) The cells (about 1 × 10^4 cells) were treated with different concentrations of NBU-2 and DMSO control for different times (24 h, 48 h, 72 h), with 3 replicate wells for each concentration. Incubate at 37 °C in a 5% CO2 cell culture incubator. After a predetermined time, 10 μL of CCK-8 was added to each well and incubated for 2 h. The absorbance was measured at the excitation wavelength of 450 nm.

[2] = tested on: MCF-7, human breast cancer cell line; experiment: Anti-proliferation MTT / CCK-8 assay; settings: MCF7, read-out: IC50 proliferation MCF-7, heading: IC50 proliferation MCF-7, 72 h, mean ± SEM of three independent assays
Description: (§3) K562, human erythroleukemia line; HL-60, human leukemic cell line; Jurkat, human leukemic T cell line; CCRF-CEM, human leukemic lymphoblasts; U937, human histiocytic lymphoma; HCT-116, human colorectal cancer cell line; A549, human lung cancer cell line; Hep G2, human hepatoma cell lines; MDA-MB-231, MCF-7, human breast cancer cell line; 4T1, mouse breast cancer cell line; PC12, pheochromocytoma of the rat adrenal medulla; HUVEC, human umbilical vein endothelial cells. These cells were purchased from the National Collection of Authenticated Cell Cultures (Shanghai, China).
as §1, with “crystals. Finally, the absorbance value of each well was measured at 570 and 655 nm.” for “crystals.”
as §2

[3] = tested on: HCT-116, human colorectal cancer cell line; experiment: Anti-proliferation MTT / CCK-8 assay; settings: HCT-116, read-out: IC50 proliferation HCT-116, heading: IC50 proliferation HCT-116, 72 h, mean ± SEM of three independent assays
Description: as §3
as §1, with “crystals. Finally, the absorbance value of each well was measured at 570 and 655 nm.” for “crystals.”
as §2

[4] = tested on: CCRF-CEM, human leukemic lymphoblasts; experiment: Anti-proliferation MTT / CCK-8 assay
Description: as §3
as §1, with “crystals. Finally, the absorbance value of each well was measured at 570 and 655 nm.” for “crystals.”
as §2

[5] = tested on: PC12, pheochromocytoma of the rat adrenal medulla; experiment: Anti-proliferation MTT / CCK-8 assay; settings: PC-12, 72 h
Description: as §3
as §1, with “crystals. Finally, the absorbance value of each well was measured at 570 and 655 nm.” for “crystals.”
as §2

[6] = tested on: MDA-MB-231, human breast cancer cell line; experiment: Anti-proliferation MTT / CCK-8 assay; settings: MDA-MB-231, read-out: IC50 proliferation MDA-MB-231, heading: IC50 proliferation MDA-MB-231, 72 h, mean ± SEM of three independent assays
Description: as §3
as §1, with “crystals. Finally, the absorbance value of each well was measured at 570 and 655 nm.” for “crystals.”
as §2

[7] = tested on: Hep G2, human hepatoma cell lines; experiment: Anti-proliferation MTT / CCK-8 assay; settings: HepG2, read-out: IC50 proliferation HepG2, heading: IC50 proliferation HepG2, 72 h, mean ± SEM of three independent assays
Description: as §3
as §1, with “crystals. Finally, the absorbance value of each well was measured at 570 and 655 nm.” for “crystals.”
as §2

[8] = tested on: K562, human erythroleukemia line; experiment: Anti-proliferation MTT / CCK-8 assay; settings: K562, read-out: IC50 proliferation K562, heading: IC50 proliferation K562, 72 h, mean ± SEM of three independent assays
Description: as §3
as §1, with “crystals. Finally, the absorbance value of each well was measured at 570 and 655 nm.” for “crystals.”
as §2

[9] = tested on: A549, human lung cancer cell line; experiment: Anti-proliferation MTT / CCK-8 assay; settings: A549, read-out: IC50 proliferation A549, heading: IC50 proliferation A549, 72 h, mean ± SEM of three independent assays
Description: as §3
as §1, with “crystals. Finally, the absorbance value of each well was measured at 570 and 655 nm.” for “crystals.”
as §2

[10] = tested on: U937, human histiocytic lymphoma; experiment: Anti-proliferation MTT / CCK-8 assay
Description: as §3
as §1, with “crystals. Finally, the absorbance value of each well was measured at 570 and 655 nm.” for “crystals.”
as §2

[11] = tested on: 4T1, mouse breast cancer cell line; experiment: Anti-proliferation MTT / CCK-8 assay; settings: 72 h
Description: as §3
as §1, with “crystals. Finally, the absorbance value of each well was measured at 570 and 655 nm.” for “crystals.”
as §2

[12] = tested on: HL-60, human leukemic cell line; experiment: Anti-proliferation MTT / CCK-8 assay
Description: as §3
as §1, with “crystals. Finally, the absorbance value of each well was measured at 570 and 655 nm.” for “crystals.”
as §2

IC50 [2]: 14.9 ± 3.21 µM | IC50 [3]: 7.06 ± 1.48 µM | IC50 ([4]; 72 h, read-out: IC50 against CCRF-CEM): < 5000 nM | IC50 ([4]; read-out: IC50 proliferation CCRF-CEM, 72 h, mean ± SEM of three independent assays): 2680 ± 300 nM | IC50 [5]: > 50 nM | IC50 [6]: 8.76 ± 1.88 µM | IC50 [7]: 7.55 ± 0.46 µM | IC50 [8]: 7.02 ± 1.85 µM | IC50 [9]: 33.7 ± 2.15 µM | IC50 ([10]; U-937, 72 h, read-out: IC50 against U937): < 5000 nM | IC50 ([10]; U-937, read-out: IC50 proliferation U937, heading: IC50 proliferation U937, 72 h, mean ± SEM of three independent assays): 2340 ± 1080 nM | IC50 [11]: > 50 nM | IC50 ([12]; HL-60, 72 h, read-out: IC50 against HL-60): < 5000 nM | IC50 ([12]; HL-60, read-out: IC50 proliferation HL-60, heading: IC50 proliferation HL-60, 72 h, mean ± SEM of three independent assays): 1920 ± 80 nM
Compound: Cc1cccc2c(=O)c3c(NCCCCCC(=O)NO)ccc([N+](=O)[O-])c3[nH]c12 [NBU-2, N-hydroxy-6-((5-methyl-4-nitro-9-oxo-9,10-dihydroacridin-1-yl)amino)hexanamide]
IC50 ([1]; 72 h, read-out: IC50 anti-proliferative activity against HUVECs): 35.6 µM | IC50 ([1]; read-out: IC50 proliferation HUVEC (normal cells), heading: IC50 proliferation HUVEC, 72 h, mean ± SEM of three independent assays): 35.6 ± 7.3 µM
